# Measured values reported in patent publication US20220264878A1, “HERBICIDAL COMPOSITION CONTAINING R-TYPE PYRIDYLOXY CARBOXYLIC ACID DERIVATIVE AND USE THEREOF” (Qingdao Kingagroot Chemical Compound Co., Ltd., priority 2019, published 2022).
# Assays:
# Type in all cases: in vivo
# Echinochloa oryzoides = experiment: Soil sealing treatment, pot culture, fresh weight inhibition (Tables 149, 150)
# Experimental: (§1) A method for investigating absolute number was employed, wherein whole seedlings of survival weeds were cut off with a blade along the soil surface, and the fresh weight of the weeds was weighed with an analytical balance. For dead weeds, the fresh weight thereof was zero.
# (§2) Theoretical fresh weight inhibition rate of a combination of two active ingredients in each group was calculated by the Gowing method (E0=X+Y−X*Y/100), and then compared with an actually measured inhibition rate (E), thereby effect of the combination (hereafter referred to as combined effect) on weeds was evaluated: the value of E-E0, which was greater than 10%, corresponded to a synergistic effect, the value of E-E0, which was less than −10%, corresponded to an antagonistic effect, and the value of E-E0, which was from −10% to 10%, corresponded to an additional effect. […] Wherein, in the formula, X represented the fresh weight inhibition rate of the active ingredient A in a dosage of P, and Y represented the fresh weight inhibition rate of the active ingredient B in a dosage of Q.
# (§3) Echinochloa crusgalli var zelayensis were collected in Huai'an of Jiangsu Province; Echinochloa caudate were collected in Pingluo of Ningxia Province; Echinochloa oryzoides were collected in Qiqiha'er of Heilongjiang Province.
# (§4) The culture was carried out in a controllable sunlight greenhouse at 20 to 30° C., in natural light, and relative humidity of 57% to 72%. […] The test soil was placed quantitatively to ¾ of the pots and then watered from the bottom of the pots to completely wet the soil to saturation. The pretreated test weed seeds were uniformly sowed on the surface, then covered with 0.5-2 cm soil according to the seed size, and ready-for use 24 hours after sowing.
# (§5) The technical materials were all dissolved in acetone, and diluted with an aqueous solution containing 0.1% emulsifier T-80. The dilution is performed as required.
# (§6) A ratio of A to the active ingredient B and amounts thereof in each group depends on the characteristics and toxicity of the two agents, as well as the main application purpose of a corresponding formulation. Based on the pre-tests in this study, the dosage of A and the active ingredient B applied alone and in combination were shown in the tables. Water containing the solvent and emulsifier same with the above groups but free of the agents was used as a blank control.
# (§7) 3 pots with 30 weed seeds per pot were treated in one treatment with 4 replications per treatment.
# (§8) The pots which were sowed and mulched were evenly placed on a platform with an area of 0.5 m^2, and a solution of agents was sprayed on soil surface thereof by the 3WP-2000-type walking spray tower at a dosage of […] and at a spray pressure of 0.3 MPa. After all the solution was sprayed, the valve was closed. After 30 seconds, the door of the spray tower was opened, and the nutritional bowl was taken out. Then the valve was opened, and the spray tube was cleaned by spraying 50 ml of water.
# (§9) This section was same as the section 4) in the post-emergence treatment by performing foliage spray, and was not repeated herein.
# Echinochloa caudate = experiment: Soil sealing treatment, pot culture, fresh weight inhibition (Tables 99, 100)
# Experimental: as §1, §2, §3, §4, §5, §6, §7, §8, §9
# [1] = system: Echinochloa crusgalli var. zelayensis; experiment: Soil sealing treatment, pot culture, fresh weight inhibition (Tables 49, 50)
# Experimental: as §1, §2, §3, §4, §5, §6, §7, §8, §9
# Ammannia arenaria = experiment: Post-emergence foliage spray, pot culture, fresh weight inhibition (Tables 1-48, 51-98, 101-148; 24 days); conditions: Table 103
# How it was run: (§10)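 Greenhouse pot plants (20–30 °C, natural light, 57–72% RH) were sprayed once on foliage at 450 kg/ha and 0.3 MPa, at the 5–6-leaf (grass) or 6–7-leaf (broadleaf) stage. Compounds were in acetone diluted with 0.1% Tween-80 water. Surviving shoots were weighed at 24 days; dead plants counted as zero.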
# Ludwigia prostrate = experiment: as above
# How it was run: as §10
# Eclipta prostrate = experiment: as above; conditions: 24 days
# How it was run: as §10
smiles,measurement,setting,value
C#CCOc1cc(-n2nc(C(C)(C)C)oc2=O)c(Cl)cc1Cl [oxadiargyl],Control effect (%) of B applied alone in corresponding dose,Echinochloa oryzoides; B 7.5 g a.i./ha,2.6%
same,Control effect (%) of B applied alone in corresponding dose,Echinochloa oryzoides; B 15 g a.i./ha,12.7%
same,Control effect (%) of B applied alone in corresponding dose,Echinochloa oryzoides; B 30 g a.i./ha,41.6%
same,Control effect (%) of B applied alone in corresponding dose,Echinochloa oryzoides; B 60 g a.i./ha,63.3%
same,Control effect (%) of B applied alone in corresponding dose,"Echinochloa caudate; Table 100, 7.5 g a.i./ha",1.7%
same,Control effect (%) of B applied alone in corresponding dose,"Echinochloa caudate; Table 100, 15 g a.i./ha",10.8%
same,Control effect (%) of B applied alone in corresponding dose,"Echinochloa caudate; Table 100, 30 g a.i./ha",37.2%
same,Control effect (%) of B applied alone in corresponding dose,"Echinochloa caudate; Table 100, 60 g a.i./ha",62.5%
same,Control effect (%) of B applied alone in corresponding dose,[1]; oxadiargyl 7.5 g a.i./ha,1.6%
same,Control effect (%) of B applied alone in corresponding dose,[1]; oxadiargyl 15 g a.i./ha,10.4%
same,Control effect (%) of B applied alone in corresponding dose,[1]; oxadiargyl 30 g a.i./ha,38.8%
same,Control effect (%) of B applied alone in corresponding dose,[1]; oxadiargyl 60 g a.i./ha,63.5%
CC(C)Oc1cc(-n2nc(C(C)(C)C)oc2=O)c(Cl)cc1Cl [oxadiazon],Control effect (%) of B applied alone in corresponding dose,Echinochloa oryzoides; B 37.5 g a.i./ha,5.1%
same,Control effect (%) of B applied alone in corresponding dose,Echinochloa oryzoides; B 75 g a.i./ha,10.3%
same,Control effect (%) of B applied alone in corresponding dose,Echinochloa oryzoides; B 150 g a.i./ha,39.7%
same,Control effect (%) of B applied alone in corresponding dose,Echinochloa oryzoides; B 300 g a.i./ha,50.8%
same,Control effect (%) of B applied alone in corresponding dose,"Echinochloa caudate; Table 99, 37.5 g a.i./ha",6.0%
same,Control effect (%) of B applied alone in corresponding dose,"Echinochloa caudate; Table 99, 75 g a.i./ha",22.1%
same,Control effect (%) of B applied alone in corresponding dose,"Echinochloa caudate; Table 99, 150 g a.i./ha",39.5%
same,Control effect (%) of B applied alone in corresponding dose,"Echinochloa caudate; Table 99, 300 g a.i./ha",63.0%
same,Control effect (%) of B applied alone in corresponding dose,[1]; oxadiazon 37.5 g a.i./ha,4.2%
same,Control effect (%) of B applied alone in corresponding dose,[1]; oxadiazon 75 g a.i./ha,25.4%
same,Control effect (%) of B applied alone in corresponding dose,[1]; oxadiazon 150 g a.i./ha,41.5%
same,Control effect (%) of B applied alone in corresponding dose,[1]; oxadiazon 300 g a.i./ha,64.2%
CCOC(=O)c1cnn(C)c1S(=O)(=O)NC(=O)Nc1nc(OC)cc(OC)n1 [pyrazosulfuron-ethyl],Control effect (%) of B applied alone in corresponding dose,Ammannia arenaria; 1.875 g a.i./ha,16.3%
same,Control effect (%) of B applied alone in corresponding dose,Ammannia arenaria; 3.75 g a.i./ha,26.1%
same,Control effect (%) of B applied alone in corresponding dose,Ammannia arenaria; 7.5 g a.i./ha,52.8%
same,Control effect (%) of B applied alone in corresponding dose,Ammannia arenaria; 15 g a.i./ha,77.2%
same,Control effect (%) of B applied alone in corresponding dose,Ludwigia prostrate; pyrazosulfuron-ethyl 1.875 g a.i./ha,7.6%
same,Control effect (%) of B applied alone in corresponding dose,Ludwigia prostrate; pyrazosulfuron-ethyl 3.75 g a.i./ha,13.0%
same,Control effect (%) of B applied alone in corresponding dose,Ludwigia prostrate; pyrazosulfuron-ethyl 7.5 g a.i./ha,52.2%
same,Control effect (%) of B applied alone in corresponding dose,Ludwigia prostrate; pyrazosulfuron-ethyl 15 g a.i./ha,75.3%
same,Control effect (%) of B applied alone in corresponding dose,Eclipta prostrate; B 1.875 g a.i/ha,9.5%
same,Control effect (%) of B applied alone in corresponding dose,Eclipta prostrate; B 3.75 g a.i/ha,19.9%
same,Control effect (%) of B applied alone in corresponding dose,Eclipta prostrate; B 7.5 g a.i/ha,51.0%
same,Control effect (%) of B applied alone in corresponding dose,Eclipta prostrate; B 15 g a.i/ha,76.1%
